Reference: patent US7858630B2, “D3 and 5-HT2A receptor modulators” (Hoffmann-La Roche Inc., priority 2008, dated 2010)

Tests used:
[1] = biological target: T1, human serotonin 5-HT2A receptor (Homo sapiens, UniProt P28223); assay: Radioligand binding ([3H]-ketanserin) to membranes of HEK-293 EBNA cells expressing human 5-HT2A receptor; conditions: 1.1 nM [3H]-ketanserin, HEK-293 EBNA membranes, 1 h at RT
T1 construct: expressed in transfected cells; host or cells: HEK-293 EBNA cells, transient transfection; membrane preparation
T1 sequence (P28223 whole entry): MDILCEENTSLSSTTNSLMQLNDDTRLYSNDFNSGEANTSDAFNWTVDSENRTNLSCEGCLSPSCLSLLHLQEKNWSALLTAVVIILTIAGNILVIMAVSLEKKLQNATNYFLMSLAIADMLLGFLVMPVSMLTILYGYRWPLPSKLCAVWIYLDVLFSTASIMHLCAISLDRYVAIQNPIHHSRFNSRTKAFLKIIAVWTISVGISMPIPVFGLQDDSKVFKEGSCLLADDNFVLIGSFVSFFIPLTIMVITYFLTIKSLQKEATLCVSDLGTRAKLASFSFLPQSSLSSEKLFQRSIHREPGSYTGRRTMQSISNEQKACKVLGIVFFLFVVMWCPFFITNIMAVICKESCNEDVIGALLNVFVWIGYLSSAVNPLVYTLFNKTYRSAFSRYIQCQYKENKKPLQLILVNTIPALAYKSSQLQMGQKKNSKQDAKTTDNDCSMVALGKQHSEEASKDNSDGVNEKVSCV
Experimental: (§1) The ability of the compounds to bind to the 5-HT2A, D3 and D2 receptors was determined using radioligand binding to cloned receptors selectively expressed in HEK-293 EBNA cells.
(§2) Membrane Preparation for Human D2, Human D3 and Human 5-HT2A Receptors
(§3) HEK-293 EBNA cells were transiently transfected with expression plasmids encoding for the human D2 or D3 dopamine- or for the human 5-HT2A serotonin receptor, respectively. The cells were harvested 48 h post-transfection, washed three times with cold PBS and stored at −80° C. prior to use. The pellet was suspended in cold 50 mM Tris-HCl buffer containing 10 mM EDTA (pH 7.4) and homogenized with a Polytron (Kinematica AG, Basel, Switzerland) for 20-30 sec at 12.000 rpm. After centrifugation at 48.000×g for 30 min at 4° C., the pellet was resuspended in cold 10 mM Tris-HCl buffer containing 0.1 mM EDTA (pH 7.4), homogenized, and centrifuged as above. This pellet was further resuspended in a smaller volume of ice cold 10 mM Tris-HCl buffer containing 0.1 mM EDTA (pH 7.4) and homogenized with a Polytron for 20-30 sec at 12.000 rpm. The protein content of this homogenate was determined with the Bio-Rad (Bradford) Protein Assay (Biorad Laboratories GmbH, München, Germany) according to the instructions of the manufacturer using gamma globulin as the standard. This homogenate was stored at −80° C. in aliquots and thawed immediately prior to use.
(§4) Radioligand Binding Assay Conditions
(§5) Aliquots of membrane preparations were thawed at RT, resupended in assay buffer (D2, D3: 50 mM Tris-HCl, 120 mM NaCl, 5 mM MgCl2, 1 mM EDTA, 5 mM KCl, 1.5 mM CaCl2, pH=7.4; 5-HT2A: 50 mM Tris-HCl, 10 mM MgCl2, 1 mM EGTA, pH=7.4), homogenized with a Polytron for 20-30 sec at 12.000 rpm and adjusted to a final concentration of approximately 7.5 μg protein/well (D2, D3) and 15 μg protein/well (5-HT2A), respectively.
(§6) The binding affinity (Ki) of the compounds was determined using radioligand binding. Membranes were incubated in a total volume of 200 μl with a fixed concentration of radioligand (final concentration approximately 0.7 nM [^3H]-spiperone for D2, 0.5 nM [^3H]-spiperone for D3, and 1.1 nM [^3H]-ketanserin for 5-HT2A) and ten concentrations of test compound in ranging between 10 μM-0.1 nM for 1 h at RT. At the end of the incubation, the reaction mixtures were filtered on to unifilter 96-well white microplates with bonded GF/C filters (Packard BioScience, Zurich, Switzerland; preincubated for 1 h in 0.1% polyethylenimine (PEI) in assay buffer) with a Filtermate 196 harvester (Packard BioScience) and washed 3 times with cold assay buffer. The nonspecific binding was determined with equally composed reaction mixtures in the presence of 10 μM unlabelled spiperone. Per well 45 μl of Microscint 40 (Perkin Elmer, Schwerzenbach, Switzerland) was added, plates for sealed, shaken for 20 min and counted for 3 min on a Topcount Microplate Scintillation Counter (Canberra Packard SA, Zurich, Switzerland) with quenching correction.
(§7) The CPM value for each duplicate of a concentration of competing compound was averaged (y1), then the % specific binding was calculated according to the equation (((y1−non-specific)/(total binding-non-specific))×100). Graphs were plotted with the % specific binding using XLfit, a curve fitting program that iteratively plots the data using Levenburg Marquardt algorithm. The single site competition analysis equation used was y=A+((B−A)/(1+((x/C)^D))), where y is the % specific binding, A is the minimum y, B is the maximum y, C is the IC50, x is the log10 of the concentration of the competing compound and D is the slope of the curve (the Hill Coefficient). From these curves the IC50 (inhibition concentration at which 50% specific binding of the radioligand was displaced) and Hill coefficient were determined. […]

[2] = biological target: T2, human dopamine D3 receptor (Homo sapiens, UniProt P35462); assay: Radioligand binding ([3H]-spiperone) to membranes of HEK-293 EBNA cells expressing human D3 receptor; conditions: human D3, 0.5 nM [3H]-spiperone, HEK-293 EBNA membranes, 1 h at RT
T2 construct: expressed in transfected cells; host or cells: HEK-293 EBNA cells, transient transfection; membrane preparation
T2 sequence (P35462 whole entry): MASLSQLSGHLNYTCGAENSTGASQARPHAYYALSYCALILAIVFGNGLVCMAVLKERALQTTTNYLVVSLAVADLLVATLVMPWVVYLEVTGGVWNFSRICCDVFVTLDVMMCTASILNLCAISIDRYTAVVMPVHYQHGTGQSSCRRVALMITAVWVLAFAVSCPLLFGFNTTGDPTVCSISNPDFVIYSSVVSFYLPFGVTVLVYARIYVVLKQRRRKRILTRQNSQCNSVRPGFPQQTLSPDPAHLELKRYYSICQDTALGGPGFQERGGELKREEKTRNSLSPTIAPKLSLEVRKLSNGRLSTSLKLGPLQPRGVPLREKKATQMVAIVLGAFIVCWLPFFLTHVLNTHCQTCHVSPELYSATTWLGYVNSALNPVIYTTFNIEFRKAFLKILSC
Experimental: as §1, §2, §3, §4, §5, §6, §7

[3] = biological target: T3, human dopamine D2 receptor (Homo sapiens, UniProt P14416); assay: Radioligand binding ([3H]-spiperone) to membranes of HEK-293 EBNA cells expressing human D2 receptor; conditions: human D2, 0.7 nM [3H]-spiperone, HEK-293 EBNA membranes, 1 h at RT
T3 construct: expressed in transfected cells; host or cells: HEK-293 EBNA cells, transient transfection; membrane preparation
T3 sequence (P14416 whole entry): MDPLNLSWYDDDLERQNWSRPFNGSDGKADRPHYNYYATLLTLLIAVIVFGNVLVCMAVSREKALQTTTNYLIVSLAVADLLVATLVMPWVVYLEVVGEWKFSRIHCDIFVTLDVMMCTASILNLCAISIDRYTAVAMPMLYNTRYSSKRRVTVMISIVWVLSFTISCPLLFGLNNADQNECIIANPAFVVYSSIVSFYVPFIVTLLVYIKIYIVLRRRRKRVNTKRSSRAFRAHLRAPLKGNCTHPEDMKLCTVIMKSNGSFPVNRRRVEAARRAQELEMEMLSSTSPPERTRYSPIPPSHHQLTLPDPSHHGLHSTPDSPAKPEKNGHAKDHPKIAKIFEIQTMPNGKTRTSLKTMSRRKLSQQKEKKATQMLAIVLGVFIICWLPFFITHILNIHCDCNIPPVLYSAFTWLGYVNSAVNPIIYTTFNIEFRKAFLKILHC
Experimental: as §1, §2, §3, §4, §5, §6, §7

`O=C(CC1CCCCO1)N[C@H]1CC[C@H](CCN2CCN(c3noc4cc(Cl)ccc34)CC2)CC1` (stereo partly drawn) [Example 35, N-trans-(4-{2-[4-(6-Chloro-benzo[d]isoxazol-3-yl)-piperazin-1-yl]-ethyl}-cyclohexyl)-2-(tetrahydro-pyran-2-yl)-acetamide] gave a Ki [1] of 0.0048 µM, a Ki [2] of 0.0172 µM and a Ki [3] of 0.899 µM.
In the case of `COC(C)CC(=O)N[C@H]1CC[C@H](CCN2CCN(c3noc4cc(Cl)ccc34)CC2)CC1` (stereo partly drawn) [Example 37, N-trans-(4-{2-[4-(6-Chloro-benzo[d]isoxazol-3-yl)-piperazin-1-yl]-ethyl}-cyclohexyl)-3-methoxy-butyramide], the Ki [1] is reported as 0.00732 µM, the Ki [2] is reported as 0.0149 µM and the Ki [3] is reported as 0.35 µM.
Work on `O=C(N[C@H]1CC[C@H](CCN2CCN(c3noc4cc(Cl)ccc34)CC2)CC1)C1(O)CC1` [Example 38, 1-Hydroxy-cyclopropanecarboxylic acid N-trans-(4-{2-[4-(6-chloro-benzo[d]isoxazol-3-yl)-piperazin-1-yl]-ethyl}-cyclohexyl)-amide] yielded a Ki [1] of 0.00819 µM, a Ki [2] of 0.0125 µM and a Ki [3] of 0.314 µM.
For `COC1(C)CCC(CC(=O)N[C@H]2CC[C@H](CCN3CCN(c4noc5cc(Cl)ccc45)CC3)CC2)CC1` (stereo partly drawn) [Example 39, N-trans-(4-{2-[4-(6-Chloro-benzo[d]isoxazol-3-yl)-piperazin-1-yl]-ethyl}-cyclohexyl)-2-(4-methoxy-4-methyl-cyclohexyl)-acetamide], the Ki [1] was 0.00414 µM, the Ki [2] was 0.0234 µM and the Ki [3] was 3.8 µM.
`O=C(CC1CCOCC1)N[C@H]1CC[C@H](CCN2CCN(c3noc4cc(Cl)ccc34)CC2)CC1` [Example 40, N-trans-(4-{2-[4-(6-Chloro-benzo[d]isoxazol-3-yl)-piperazin-1-yl]-ethyl}-cyclohexyl)-2-(tetrahydro-pyran-4-yl)-acetamide] gave a Ki [1] of 0.0113 µM, a Ki [2] of 0.00702 µM and a Ki [3] of 1.08 µM.
`CCC(=O)N[C@H]1CC[C@H](CCN2CCN(c3noc4cc(Cl)ccc34)CC2)CC1` [Example 41, N-trans-(4-{2-[4-(6-Chloro-benzo[d]isoxazol-3-yl)-piperazin-1-yl]-ethyl}-cyclohexyl)-propionamide] showed a Ki [1] of 0.0109 µM, a Ki [2] of 0.0087 µM and a Ki [3] of 0.675 µM.
`O=C(CO)N[C@H]1CC[C@H](CCN2CCN(c3noc4cc(Cl)ccc34)CC2)CC1` [Example 42, N-trans-(4-{2-[4-(6-Chloro-benzo[d]isoxazol-3-yl)-piperazin-1-yl]-ethyl}-cyclohexyl)-2-hydroxy-acetamide] was tested, and the Ki [1] was 0.00699 µM, the Ki [2] was 0.011 µM and the Ki [3] was 0.809 µM.
`O=C(C[C@H]1CC[C@H](O)CC1)N[C@H]1CC[C@H](CCN2CCN(c3noc4cc(Cl)ccc34)CC2)CC1` [Example 43, N-trans-(4-{2-[4-(6-Chloro-benzo[d]isoxazol-3-yl)-piperazin-1-yl]-ethyl}-cyclohexyl)-2-trans-(4-hydroxy-cyclohexyl)-acetamide] showed a Ki [1] of 0.00322 µM, a Ki [2] of 0.0125 µM and a Ki [3] of 2.92 µM.
In the case of `CC(C)(O)CC(=O)N[C@H]1CC[C@H](CCN2CCN(c3noc4cc(Cl)ccc34)CC2)CC1` [Example 44, N-trans-(4-{2-[4-(6-Chloro-benzo[d]isoxazol-3-yl)-piperazin-l-yl]-ethyl}-cyclohexyl)-3-hydroxy-3-methyl-butyramide], the Ki [1] is reported as 0.00659 µM, the Ki [2] is reported as 0.0101 µM and the Ki [3] is reported as 0.325 µM.
`C[C@H](O)CC(=O)N[C@H]1CC[C@H](CCN2CCN(c3noc4cc(Cl)ccc34)CC2)CC1` [Example 45, (S)-N-(4-{2-[4-(6-Chloro-benzo[d]isoxazol-3-yl)-piperazin-1-yl]-ethyl}-cyclohexyl)-3-hydroxy-butyramide] was tested, and the Ki [1] was 0.00921 µM, the Ki [2] was 0.0158 µM and the Ki [3] was 0.356 µM.
`O=C(N[C@H]1CC[C@H](CCN2CCN(c3noc4cc(Cl)ccc34)CC2)CC1)[C@H]1CCOC1` [Example 46, (S)-Tetrahydro-furan-3-carboxylic acid (4-{2-[4-(6-chloro-benzo[d]isoxazol-3-yl)-piperazin-1-yl]-ethyl}-cyclohexyl)-amide] was tested, and the Ki [1] was 0.0109 µM, the Ki [2] was 0.0209 µM and the Ki [3] was 0.488 µM.
Compound `O=C(CC1COC1)N[C@H]1CC[C@H](CCN2CCN(c3noc4cc(Cl)ccc34)CC2)CC1` [Example 47, N-trans-(4-{2-[4-(6-Chloro-benzo[d]isoxazol-3-yl)-piperazin-1-yl]-ethyl}-cyclohexyl)-2-oxetan-3-yl-acetamide] has a Ki [1] of 0.00659 µM, a Ki [2] of 0.00814 µM and a Ki [3] of 0.238 µM.
`COC[C@H]1C[C@H](CC(=O)N[C@H]2CC[C@H](CCN3CCN(c4noc5cc(Cl)ccc45)CC3)CC2)C1` [Example 48, N-trans-(4-{2-[4-(6-Chloro-benzo[d]isoxazol-3-yl)-piperazin-1-yl]-ethyl}-cyclohexyl)-2-trans-(3-methoxymethyl-cyclobutyl)-acetamide] was tested, and the Ki [1] was 0.00377 µM, the Ki [2] was 0.00996 µM and the Ki [3] was 0.706 µM.
With `O=C(C[C@H]1CCCCO1)N[C@H]1CC[C@H](CCN2CCN(c3noc4cc(Cl)ccc34)CC2)CC1` [Example 49, N-trans-(4-{2-[4-(6-Chloro-benzo[d]isoxazol-3-yl)-piperazin-1-yl]-ethyl}-cyclohexyl)-2-(R)-tetrahydro-pyran-2-yl-acetamide] the Ki [1] was 0.00848 µM, the Ki [2] was 0.0206 µM and the Ki [3] was 1.02 µM.
With `O=C(C[C@@H]1CCCCO1)N[C@H]1CC[C@H](CCN2CCN(c3noc4cc(Cl)ccc34)CC2)CC1` [Example 50, N-trans-(4-{2-[4-(6-Chloro-benzo[d]isoxazol-3-yl)-piperazin-1-yl]-ethyl}-cyclohexyl)-2-(S)-tetrahydro-pyran-2-yl-acetamide] the Ki [1] was 0.00478 µM, the Ki [2] was 0.0237 µM and the Ki [3] was 1.16 µM.
`O=C(CC1CC1)N[C@H]1CC[C@H](CCN2CCN(c3noc4cc(Cl)ccc34)CC2)CC1` [Example 52, N-trans-(4-{2-[4-(6-Chloro-benzo[d]isoxazol-3-yl)-piperazin-1-yl]-ethyl}-cyclohexyl)-2-cyclopropyl-acetamide] gave a Ki [1] of 0.00507 µM, a Ki [2] of 0.00384 µM and a Ki [3] of 0.315 µM.
With `O=C(CC(F)(F)F)N[C@H]1CC[C@H](CCN2CCN(c3noc4cc(Cl)ccc34)CC2)CC1` [Example 53, N-trans-(4-{2-[4-(6-Chloro-benzo[d]isoxazol-3-yl)-piperazin-1-yl]-ethyl}-cyclohexyl)-3,3,3-trifluoro-propionamide] the Ki [1] was 0.00514 µM, the Ki [2] was 0.00274 µM and the Ki [3] was 0.172 µM.
Work on `CO[C@H]1CC[C@H](C(=O)N[C@H]2CC[C@H](CCN3CCN(c4noc5cc(Cl)ccc45)CC3)CC2)CC1` [Example 54, 4-trans-Methoxy-cyclohexanecarboxylic acid N-trans-(4-{2-[4-(6-chloro-benzo[d]isoxazol-3-yl)-piperazin-1-yl]-ethyl}-cyclohexyl)-amide] yielded a Ki [1] of 0.0083 µM, a Ki [2] of 0.0502 µM and a Ki [3] of 3.85 µM.
For `COC(CC(=O)N[C@H]1CC[C@H](CCN2CCN(c3noc4cc(Cl)ccc34)CC2)CC1)OC` [Example 55, N-trans-(4-{2-[4-(6-Chloro-benzo[d]isoxazol-3-yl)-piperazin-1-yl]-ethyl}-cyclohexyl)-3,3-dimethoxy-propionamide], the Ki [1] was 0.0076 µM, the Ki [2] was 0.00616 µM and the Ki [3] was 0.396 µM.
